Data set [1] concerns BTN3A. As to the kind of experiment: Inhibitor dose response, surface BTN3A by flow cytometry in WT Daudi-Cas9 cells. Format: cell-based, human. Particulars: 72 hours, complete RPMI, vs vehicle. Here is the method:
Daudi-Cas9 cells (180 μL) were seeded at 275,000 cells/mL in cRPMI in round-bottom 96-well plates. Twenty μL of zoledronate, rotenone (MedChemExpress), oligomycin A (Neta Scientific), FCCP (MedChemExpress), antimycin A (Neta Scientific), AICAR (Sigma), 2-DG (Sigma), Compound 991 (Selleck Chemical), A-769662 (Sigma), ethanol (vehicle), or DMSO (vehicle, at dilutions matching the treatment) at various concentrations were added to the cells. Plate edge wells were filled with 200 μL of sterile water or PBS. The cells were grown at 37° C. for 72 hours, and stained with APC-conjugated anti-human CD277 antibody (clone BT3.1, 1:50 dilution)(Miltenyi Biotec) and 7-AAD (1:150 dilution) (Tonbo). The cells were then analyzed on the Attune NxT flow cytometer.

In data set [2] the test system is Daudi-Cas9 cells. The experiment in a line: γδ TCR tetramer staining (G115 Vγ9Vδ2 TCR clone) of Daudi-Cas9 cells. To be noted: WT Daudi-Cas9 cells, 0.5 mM, 72 hours. Format: cell-based, human. The source says: The G115 Vγ9Vδ2 TCR clone tetramer was generated using the following methods. The G115 γ-[…] chain sequence (Davodeau et al. J. Immunol. 151, 1214-1223 (1993)) was cloned into the pAcGP67A vector with a C-terminal acidic zipper, and the G115 δ-chain sequence (Davodeau et al. (1993)) as cloned into the pAcGP67A vector with a C-terminal AviTag followed by a basic zipper. Zippers stabilized the TCR complex. The TCR was expressed in the High Five baculovirus insect-cell expression system and purified via affinity chromatography over a Ni-NTA column. TCRs were biotinylated and biotinylation was confirmed using a TrapAvidin SDS-PAGE assay. The G115 TCR was then further purified using size-exclusion chromatography (Superdex200 100/300 GL column, GE Healthcare) and purity was confirmed via SDS-PAGE. Tetramers were generated by incubating biotinylated TCR with streptavidin conjugated to the PE fluorophore.
Daudi-Cas9 KO cells were analyzed 13 and 14 days post-lentiviral transduction. WT Daudi-Cas9 cells were analyzed after being cultured for 72 hours with 0.5 mM AICAR, 80 μM Compound 991, DMSO (vehicle control at the concentration matching Compound 991), or nothing. […] Stained cells were analyzed on the Attune NxT flow cytometer.

Data set [3] relates to BTN3A. As to the kind of experiment: Compound C dose response in combination with AICAR or OXPHOS inhibition, surface BTN3A. Format: cell-based, human. The arrangement: BTN3A levels vs vehicle control: dose or concentration left out as unconfirmed. The method, then: Daudi-Cas9 cells (170 μL) were seeded at 292,000 cells/mL in cRPMI in round-bottom 96-well plates. Ten μL of Compound C (Abcam) were added to all the cells at various concentrations. At indicated concentrations, 20 μL of rotenone, oligomycin A, FCCP, 2-DG, AICAR, or cRPMI (control) were added to the wells that received Compound C. Ten μL of DMSO at dilutions matching Compound C and 20 μL of cRPMI were added to the DMSO-only vehicle control wells. Plate edge wells were filled with 200 μL of sterile water or PBS. The cells were grown at 37° C. for 72 hours, stained with APC-conjugated anti-human CD277 antibody (clone BT3.1, 1:50 dilution) (Miltenyi Biotec) and 7-AAD (1:150 dilution) (Tonbo), and analyzed on the Attune NxT flow cytometer.

The subject of data set [4] is BTN3A. As to the kind of experiment: mTOR/ISR compound treatment, surface BTN3A by flow cytometry in AAVS1 and PPAT KO Daudi-Cas9 cells. Format: cell-based, human. Particulars: control KO (AAVS1) and purine biosynthesis KO (PPAT) Daudi-Cas9 cells, 10 μM, 72 hours. Here is the method: Daudi-Cas9 AAVS1 and PPAT KO cells (190 μL) were seeded at 250,000 cells/mL in round-bottom 96-well plates. Cells received 10 μL of DMSO (vehicle) or one of the following compounds at a final concentration of 10 μM: sephin1 (APE×BIO), ISRIB (MedChemExpress), guanabenz acetate (MedChemExpress), Sal003 (MedChemExpress), salubrinal (MedChemExpress), raphin1 acetate (MedChemExpress), and rapamycin (MilliporeSigma). Edge wells were filled with 200 μL of sterile PBS or water. After being cultured for 72 hours, the cells were stained with APC-conjugated anti-human CD277 antibody (clone BT3.1, 1:50 dilution) (Miltenyi Biotec) and 7-AAD (1:150 dilution) (Tonbo), and analyzed on the Attune NxT flow cytometer.

A further data set concerns BTN3A1. The experiment in a line: BTN3A expression genome-wide CRISPR knockout screen (FACS sort of surface BTN3A high/low cells). Format: cell-based, human.
In data set [5] the target is BTN2A1-BTN3A1-BTN3A2 cell surface complex on Daudi-Cas9 cells (human; Homo sapiens) (UniProt Q7KYR7). The experiment in a line: flow cytometry, PE-TCR tetramer (160 nM) staining of WT Daudi-Cas9 cells treated 72 h with 80 µM Compound 991 against DMSO.
Sequence of UniProt Q7KYR7 (Q7KYR7 29-527, chain 1 of 3): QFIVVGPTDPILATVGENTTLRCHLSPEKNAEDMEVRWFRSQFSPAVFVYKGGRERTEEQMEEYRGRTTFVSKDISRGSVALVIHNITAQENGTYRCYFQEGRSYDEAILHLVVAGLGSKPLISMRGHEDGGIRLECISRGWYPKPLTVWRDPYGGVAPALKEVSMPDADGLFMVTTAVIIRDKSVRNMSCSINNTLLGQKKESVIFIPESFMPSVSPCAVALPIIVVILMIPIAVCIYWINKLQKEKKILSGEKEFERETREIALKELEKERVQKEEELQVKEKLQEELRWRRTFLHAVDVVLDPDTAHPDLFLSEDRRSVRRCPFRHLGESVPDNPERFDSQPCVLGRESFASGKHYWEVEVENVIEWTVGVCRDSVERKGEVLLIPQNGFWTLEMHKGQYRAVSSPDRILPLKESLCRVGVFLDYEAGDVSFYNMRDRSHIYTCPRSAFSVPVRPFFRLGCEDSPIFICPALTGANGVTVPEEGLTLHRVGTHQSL
Sequence of UniProt Q7KYR7 (chain, as listed by the source, chain 2 of 3): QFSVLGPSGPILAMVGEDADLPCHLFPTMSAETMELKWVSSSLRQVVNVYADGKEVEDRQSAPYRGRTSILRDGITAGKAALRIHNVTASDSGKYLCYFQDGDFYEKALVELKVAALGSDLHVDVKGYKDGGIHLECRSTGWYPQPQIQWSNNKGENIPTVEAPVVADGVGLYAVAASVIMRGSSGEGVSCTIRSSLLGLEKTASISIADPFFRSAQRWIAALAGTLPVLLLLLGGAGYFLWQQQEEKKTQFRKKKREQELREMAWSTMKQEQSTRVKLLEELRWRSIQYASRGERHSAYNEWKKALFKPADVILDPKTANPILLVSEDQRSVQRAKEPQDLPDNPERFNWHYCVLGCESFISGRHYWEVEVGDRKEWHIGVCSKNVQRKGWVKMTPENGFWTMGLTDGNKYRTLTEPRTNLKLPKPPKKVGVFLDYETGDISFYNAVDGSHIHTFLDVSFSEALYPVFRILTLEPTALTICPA
Sequence of UniProt Q7KYR7 (chain, as listed by the source, chain 3 of 3): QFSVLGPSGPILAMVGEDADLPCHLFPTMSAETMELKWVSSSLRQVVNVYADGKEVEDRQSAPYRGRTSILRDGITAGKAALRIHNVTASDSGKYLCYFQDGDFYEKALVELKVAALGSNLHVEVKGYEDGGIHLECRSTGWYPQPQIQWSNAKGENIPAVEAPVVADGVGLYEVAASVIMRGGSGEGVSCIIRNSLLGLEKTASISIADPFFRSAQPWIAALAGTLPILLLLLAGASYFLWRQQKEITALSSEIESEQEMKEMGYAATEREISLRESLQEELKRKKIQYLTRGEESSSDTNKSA
Data set [6] shares this target. The experiment in a line: flow cytometry, PE-TCR tetramer (160 nM) staining of WT Daudi-Cas9 cells treated 72 h with 0.5 mM AICAR against untreated cells.
The test system of data set [7] is Daudi-Cas9 cells. As to the kind of experiment: Cancer-T cell co-culture genome-wide CRISPR knockout screen (Vγ9Vδ2 T cell killing). Format: cell-based, human. To be noted: for score: MAGeCK sgRNA test, co-culture screen; for LFC: log-fold change of sgRNA, surviving cells after co-culture vs baseline; for LFC / treat mean: MAGeCK; for treat mean: sgRNA abundance in surviving Daudi-Cas9 KO cells after 24 hours Vγ9Vδ2 T cell co-culture with zoledronate; for high_in_treatment: sgRNA enriched (TRUE) or depleted (FALSE) after T cell co-culture.

`O=CC[C@@H](O)[C@H](O)[C@H](O)CO` [2-DG, 2-deoxy-D-glucose]: in the data set on BTN3A [1], the “surface BTN3A (MFI)” value is “upregulated BTN3A levels”.
Consider `N#Cc1c(O)c2c(-c3ccc(-c4ccccc4O)cc3)csc2[nH]c1=O` [A-769662], for which the “surface BTN3A (MFI)” value with BTN3A [1] is reported as “Upregulation of surface BTN3A”.
As for `NC(=O)c1ncn([C@@H]2O[C@H](CO)[C@@H](O)[C@H]2O)c1N` [AICAR, N^1-(β-D-Ribofuranosyl)-5-aminoimidazole-4-carboxamide], in the data set on Daudi-Cas9 cells [2], the “increase in G115 Vγ9Vδ2 TCR tetramer staining” value is on record as 40-80%. In the data set on BTN3A [1], the “surface BTN3A (MFI)” value is given as “dramatic increase in surface BTN3A”.
With `c1cc(-c2cnn3cc(-c4ccc(OCCN5CCCCC5)cc4)cnc23)ccn1` [Compound C], in the data set on BTN3A [3] (WT Daudi-Cas9 cells co-treated with Compound C, 72 hours), the “BTN3A upregulation caused by OXPHOS inhibition (rotenone, oligomycin, FCCP) or glycolysis inhibition (2-DG)” value is on record as “neutralized”. For the same compound, the “AICAR-induced BTN3A upregulation” value with BTN3A [3] (WT Daudi-Cas9 cells co-treated with increasing amounts of Compound C and AICAR, 72 hours) is recorded as “decreased the AICAR-induced BTN3A upregulation”. The “BTN3A levels vs vehicle control” value in the data set on BTN3A [3] (co-treated with AICAR, Compound C) is listed as “falling well below those observed in the vehicle control”.
As for `N#CC(C#N)=NNc1ccc(OC(F)(F)F)cc1` [FCCP, carbonyl cyanide-4 (trifluoromethoxy) phenylhydrazone], the “surface BTN3A (MFI)” value with BTN3A [1] was “highest BTN3A upregulation”.
For the compound `O=C(COc1ccc(Cl)cc1)NC1CCC(NC(=O)COc2ccc(Cl)cc2)CC1` (centres unmarked) [ISRIB], the BTN3A surface expression entry in the data set on BTN3A [4] is listed as “negligible effects”.
As for `O=C(/C=C/c1ccccc1)NC(NC(=S)Nc1ccc(Cl)cc1)C(Cl)(Cl)Cl` (centres unmarked) [Sal003], in the data set with BTN3A [4], the BTN3A surface expression entry was “downregulation”.
With `O=P(O)(O)C(O)(Cn1ccnc1)P(=O)(O)O` [ZOL, zoledronate], the “surface BTN3A (MFI)” value in the data set on BTN3A [1] was “substantial and dose-dependent increase in BTN3A”.
For the compound `N=C(N)N/N=C/c1c(Cl)cccc1Cl` [guanabenz], the BTN3A surface expression result in the data set on BTN3A [4] was “negligible effects”.
In the case of `CC[C@H]1/C=C/C=C/C[C@@H](C)[C@H](O)[C@@](C)(O)C(=O)[C@@H](C)[C@H](O)[C@@H](C)C(=O)[C@@H](C)[C@H](O)[C@@H](C)/C=C/C(=O)O[C@@H]2[C@H](C)[C@H](CC1)O[C@]1(CC[C@H](C)[C@H](C[C@@H](C)O)O1)[C@H]2C` [oligomycin A], in the data set on BTN3A [1], the “surface BTN3A (MFI)” value is given as “highest BTN3A upregulation”.
Consider `NC(N)=N/N=C/c1cccc(Cl)c1Cl` [raphin1], for which the BTN3A surface expression entry in the data set with BTN3A [4] is recorded as “negligible effects”.
Regarding `C=C(C)[C@H]1Cc2c(ccc3c2O[C@@H]2COc4cc(OC)c(OC)cc4[C@@H]2C3=O)O1` [rotenone], the “surface BTN3A (MFI)” value in the data set with BTN3A [1] was “BTN3A upregulation at two lower doses and a downregulation at one higher dose”.
In the case of `O=C(/C=C/c1ccccc1)NC(NC(=S)Nc1cccc2cccnc12)C(Cl)(Cl)Cl` (centres unmarked) [salubrinal], the BTN3A surface expression result in the data set with BTN3A [4] is given as “negligible effects”.
In the case of COQ2, the “Log2 Fold Change” value in the data set with BTN3A1 (Table 2, positive regulators of BTN3A1, gene knockout in Daudi-Cas9 cells, FACS sort on surface BTN3A1 (anti-BTN3A1 clone BT3.1), three replicates) amounted to 1.1343.
On to “PE-conjugated Vγ9Vδ2 TCR (clone G115) tetramer (from UniProt P22629 37-163)”, for which the fold tetramer staining against vehicle control-treated cells in data set [5] is 5 fold. This compound came in with a percent increase of tetramer staining in data set [6] of 40 to 80%.
On to RPIA, for which the “Log2 Fold Change” value with BTN3A1 (gene knockout in Daudi cells expressing Cas9, genome wide CRISPR knockout screen sorted on surface BTN3A1, Table 1 Negative Regulators of BTN3A1) is given as −1.4533.
On to “UGGT2_TTCGCAATCTTGGGATCAA: library sgRNA targeting UGGT2 (listed as DNA, chemistry not fully specified)”, for which, in the data set with Daudi-Cas9 cells [7], the score was determined as 8.3503, the LFC is listed as 1.6772, the treat mean was determined as 3035.8 and the high_in_treatment entry is recorded as “TRUE”.
Consider “WDR59_TATCCGCACATCGCCGTCA: library sgRNA targeting WDR59 (as printed in the source, key not given here)”, for which, in the data set with Daudi-Cas9 cells [7], the score was found to be 7.8204, the LFC was −3.8469, the treat mean came out at 327.58 and the high_in_treatment entry is reported as “FALSE”.
Taken in the same sequence, the figures for “WDR61_ATTCCATCTATGGCTCCAC: library sgRNA targeting WDR61 (as printed in the source, key not given here)” were 6.193, −9.1046, 2.9058 and “FALSE”.
Consider “XPNPEP1_GGACTTGTAGGGATGCACC: library sgRNA targeting XPNPEP1 (as printed in the source, key not given here)”, for which, in the data set with Daudi-Cas9 cells [7], the score turned out to be 6.7154, the LFC was found to be 1.4173, the treat mean was 2841.3 and the high_in_treatment result is recorded as “TRUE”.
For the compound “ZC3H12A_CCGTGACCTCCAAGGCGAG: library sgRNA targeting ZC3H12A (listed as DNA, chemistry not fully specified)”, in the data set with Daudi-Cas9 cells [7], the score was found to be 6.507, the LFC is on record as 1.2168, the treat mean is recorded as 3712.6 and the high_in_treatment result was “TRUE”.
As to antimycin A, in the data set with BTN3A [1], the “surface BTN3A (MFI)” value is “highest BTN3A upregulation”.

(Values after patent US20240115705A1, “Regulation of Butyrophilin subfamily 3 member A1 (BTN3A1, CD277)” (The J. Gladstone Institutes, a testamentary trust …, priority 2021, published 2024).)
